Non-standard residues stand in square brackets, D forms with d. Residues, ends and D or L forms follow the SMILES beside them.
Test system: Rat Growth Hormone
Assay: In vivo GH secretion in adult female Sprague-Dawley rats, single SC or IV injection, RIA
Details: for GH AUC 45 min / GH AUC 300 min / GH AUC 120 min: in ng·min/mL (unit assumed)
Experimental: In order to assess such use of the GHRH analogs, the following experiments were undertaken. More specially, the goal was to assess the pharmacodynamic and pharmacokinetic profiles and acute toxicity of GHRH analog #5 when administered once by subcutaneous or intravenous injection to female Sprague-Dawley rats followed by a 14-day observation period and the pharmacodynamic profile in a male Beagle dog when the GHRH analog was administered at escalating doses to the same dog by subcutaneous injection with at least 2-day washout period. The above GHRH analog is a variation of a synthetic acetate salt of an amidated synthetic 29-amino acid peptide that corresponds to the amino-terminal segment of the naturally-occurring human growth hormone—releasing hormone (GHRH) with four amino acid substitutions in positions 2, 10, 15, and 22.
Human GHRH analog #5 in 0.9% sodium chloride for injection USP was administered once either by intravenous (IV) or subcutaneous (SC) injection to female rats followed by a 14-day observation period, as shown in Table 2. Prior to administration, all dosing formulations were filtered using a 0.22 μm filter to ensure sterility. The actual amount of GHRH analog #5 administered was calculated and adjusted based on the animal's most recent body weight. Dosing started at approximately the same time each day, commencing at 9:00 am ±30 minutes.
For pharmacodynamic investigations, blood samples (approximately 1.3 ml) were collected from 2 animals per group per time point (maximum 3 time points/animal) via a jugular venipuncture at the following time points: […] All blood samples were collected into potassium EDTA tubes and centrifuged under refrigeration (2 to 8° C., 1500 g for 10 minutes).
Rat Growth Hormone Determination • Plasma GH was determined by Linco Diagnostic Services using their own kit. Linco's Rat Growth Hormone radioimmunoassay kit (RIA) (RGH-45HK) is intended for the quantitative determination of Rat Growth Hormone in serum, plasma, and tissue culture media. It is a completely homologous assay since the antibody was raised against recombinant Rat Growth Hormone and both the tracer and the standard are prepared with the same recombinant Rat Growth Hormone. The kit includes standards, antibody, tracer, quality controls, precipitating reagents and buffer necessary to complete a RIA. The assay was conducted under the following conditions: overnight; equilibrium incubation at room temperature; sample volume: 100 μl serum, plasma, or cell culture media. The label used was 125I-Rat Growth Hormone (20,000 CPM/tube).

SMILES: CC[C@H](C)[C@H](NC(=O)[C@H](C)NC(=O)[C@H](CC(=O)O)NC(=O)[C@@H](C)NC(=O)[C@@H](N)Cc1ccc(O)cc1)C(=O)N[C@@H](Cc1ccccc1)C(=O)N[C@H](C(=O)N[C@@H](CC(N)=O)C(=O)N[C@@H](CO)C(=O)N[C@H](Cc1ccc(O)cc1)C(=O)N[C@@H](CCCNC(=N)N)C(=O)N[C@@H](CCCCN)C(=O)N[C@H](C(=O)N[C@@H](CC(C)C)C(=O)N[C@H](C)C(=O)N[C@@H](CCC(N)=O)C(=O)N[C@@H](CC(C)C)C(=O)N[C@@H](CO)C(=O)N[C@@H](C)C(=O)N[C@@H](CCCNC(=N)N)C(=O)N[C@@H](CCCCN)C(=O)N[C@@H](CCCCN)C(=O)N[C@@H](CC(C)C)C(=O)N[C@@H](CCC(N)=O)C(=O)N[C@@H](CC(=O)O)C(=O)N[C@H](C(=O)N[C@@H](CCSC)C(=O)N[C@@H](CO)C(=O)N[C@@H](CCCNC(=N)N)C(N)=O)[C@@H](C)CC)C(C)C)[C@@H](C)O [GHRH analog #5, [D-Ala^2, D-Tyr^10, D-Ala^15, Lys^22] hGHRH(1-29)-NH2] (H-Y[dA]DAIFTNS[dY]RKVL[dA]QLSARKKLQDIMSR-NH2)
- Plasma Rat Growth Hormone (0.001 mg/kg BW IV, 4 min): 26.2 ng/mL
- Plasma Rat Growth Hormone (0.001 mg/kg BW IV, 10 min): 25.85 ng/mL
- Plasma Rat Growth Hormone (0.001 mg/kg BW IV, 15 min): 34.65 ng/mL
- Plasma Rat Growth Hormone (0.001 mg/kg BW IV, 45 min): 21.15 ng/mL
- Plasma Rat Growth Hormone (0.001 mg/kg BW IV, 300 min): 67.15 ng/mL
- GH AUC 45 min (0.001 mg/kg BW IV): 1197
- GH AUC 300 min (0.001 mg/kg BW IV): 12280
- Plasma Rat Growth Hormone (0.001 mg/kg BW IV, −120 min): 23.85 ng/mL
- Plasma Rat Growth Hormone (0.001 mg/kg BW SC, 15 min): 36.7 ng/mL
- Plasma Rat Growth Hormone (0.001 mg/kg BW SC, 30 min): 14.2 ng/mL
- Plasma Rat Growth Hormone (0.001 mg/kg BW SC, 60 min): 26.85 ng/mL
- Plasma Rat Growth Hormone (0.001 mg/kg BW SC, 120 min): 17.8 ng/mL
- Plasma Rat Growth Hormone (0.001 mg/kg BW SC, 300 min): 21.85 ng/mL
- GH AUC 120 min (0.001 mg/kg BW SC): 2914
- GH AUC 300 min (0.001 mg/kg BW SC): 6482
- Plasma Rat Growth Hormone (0.001 mg/kg BW SC, −120 min): 20.15 ng/mL
- Plasma Rat Growth Hormone (0.01 mg/kg BW SC, 15 min): 190.4 ng/mL
- Plasma Rat Growth Hormone (0.01 mg/kg BW SC, 30 min): 31.9 ng/mL
- Plasma Rat Growth Hormone (0.01 mg/kg BW SC, 60 min): 8.5 ng/mL
- Plasma Rat Growth Hormone (0.01 mg/kg BW SC, 120 min): 7.6 ng/mL
- Plasma Rat Growth Hormone (0.01 mg/kg BW SC, 300 min): 11.95 ng/mL
- GH AUC 120 min (0.01 mg/kg BW SC): 5153
- GH AUC 300 min (0.01 mg/kg BW SC): 6913
- Plasma Rat Growth Hormone (0.01 mg/kg BW SC, −120 min): 20.4 ng/mL
- Plasma Rat Growth Hormone (0.03 mg/kg BW IV, 4 min): 68.45 ng/mL
- Plasma Rat Growth Hormone (0.03 mg/kg BW IV, 10 min): 254.65 ng/mL
- Plasma Rat Growth Hormone (0.03 mg/kg BW IV, 15 min): 75.1 ng/mL
- Plasma Rat Growth Hormone (0.03 mg/kg BW IV, 45 min): 33.4 ng/mL
- Plasma Rat Growth Hormone (0.03 mg/kg BW IV, 300 min): 38.75 ng/mL
- GH AUC 45 min (0.03 mg/kg BW IV): 3407
- GH AUC 300 min (0.03 mg/kg BW IV): 12060
- Plasma Rat Growth Hormone (0.03 mg/kg BW IV, −120 min): 43.15 ng/mL
- Plasma Rat Growth Hormone (0.03 mg/kg BW SC, 15 min): 240.9 ng/mL
- Plasma Rat Growth Hormone (0.03 mg/kg BW SC, 30 min): 39.05 ng/mL
- Plasma Rat Growth Hormone (0.03 mg/kg BW SC, 60 min): 9.5 ng/mL
- Plasma Rat Growth Hormone (0.03 mg/kg BW SC, 120 min): 4.6 ng/mL
- Plasma Rat Growth Hormone (0.03 mg/kg BW SC, 300 min): 11.25 ng/mL
- GH AUC 120 min (0.03 mg/kg BW SC): 6192
- GH AUC 300 min (0.03 mg/kg BW SC): 7618
- Plasma Rat Growth Hormone (0.03 mg/kg BW SC, −120 min): 36.1 ng/mL
- Plasma Rat Growth Hormone (0.1 mg/kg BW SC, 15 min): 252.4 ng/mL
- Plasma Rat Growth Hormone (0.1 mg/kg BW SC, 30 min): 43.8 ng/mL
- Plasma Rat Growth Hormone (0.1 mg/kg BW SC, 60 min): 7.65 ng/mL
- Plasma Rat Growth Hormone (0.1 mg/kg BW SC, 120 min): 4.45 ng/mL
- Plasma Rat Growth Hormone (0.1 mg/kg BW SC, 300 min): 18.7 ng/mL
- GH AUC 120 min (0.1 mg/kg BW SC): 6423
- GH AUC 300 min (0.1 mg/kg BW SC): 8507
- Plasma Rat Growth Hormone (0.1 mg/kg BW SC, −120 min): 20.4 ng/mL
- Plasma Rat Growth Hormone (0.3 mg/kg BW SC, 15 min): 247.9 ng/mL
- Plasma Rat Growth Hormone (0.3 mg/kg BW SC, 30 min): 133.5 ng/mL
- Plasma Rat Growth Hormone (0.3 mg/kg BW SC, 60 min): 16.75 ng/mL
- Plasma Rat Growth Hormone (0.3 mg/kg BW SC, 120 min): 4.00 ng/mL
- Plasma Rat Growth Hormone (0.3 mg/kg BW SC, 300 min): 21.8 ng/mL
- GH AUC 120 min (0.3 mg/kg BW SC): 8636
- GH AUC 300 min (0.3 mg/kg BW SC): 10958
- Plasma Rat Growth Hormone (0.3 mg/kg BW SC, −120 min): 20.7 ng/mL
- Plasma Rat Growth Hormone (1.00 mg/kg BW SC, 15 min): 270.0 ng/mL
- Plasma Rat Growth Hormone (1.00 mg/kg BW SC, 30 min): 155.85 ng/mL
- Plasma Rat Growth Hormone (1.00 mg/kg BW SC, 60 min): 24.35 ng/mL
- Plasma Rat Growth Hormone (1.00 mg/kg BW SC, 120 min): 15.85 ng/mL
- Plasma Rat Growth Hormone (1.00 mg/kg BW SC, 300 min): 28.85 ng/mL
- GH AUC 120 min (1.0 mg/kg BW SC): 10425
- GH AUC 300 min (1.0 mg/kg BW SC): 14448
- Plasma Rat Growth Hormone (1.00 mg/kg BW SC, −120 min): 88.95 ng/mL
- Plasma Rat Growth Hormone (3.0 mg/kg BW IV, 4 min): 38.7 ng/mL
- Plasma Rat Growth Hormone (3.0 mg/kg BW IV, 10 min): 36.95 ng/mL
- Plasma Rat Growth Hormone (3.0 mg/kg BW IV, 15 min): 83.65 ng/mL
- Plasma Rat Growth Hormone (3.0 mg/kg BW IV, 45 min): 41.6 ng/mL
- Plasma Rat Growth Hormone (3.0 mg/kg BW IV, 300 min): 56.7 ng/mL
- GH AUC 45 min (3.0 mg/kg BW IV): 2384
- GH AUC 300 min (3.0 mg/kg BW IV): 14299
- Plasma Rat Growth Hormone (3.0 mg/kg BW IV, −120 min): 48.6 ng/mL
- Plasma Rat Growth Hormone (3.00 mg/kg BW SC, 15 min): 453.0 ng/mL
- Plasma Rat Growth Hormone (3.00 mg/kg BW SC, 30 min): 181.55 ng/mL
- Plasma Rat Growth Hormone (3.00 mg/kg BW SC, 60 min): 59.4 ng/mL
- Plasma Rat Growth Hormone (3.00 mg/kg BW SC, 120 min): 4.45 ng/mL
- Plasma Rat Growth Hormone (3.00 mg/kg BW SC, 300 min): 47.9 ng/mL
- GH AUC 120 min (3.0 mg/kg BW SC): 15562
- GH AUC 300 min (3.0 mg/kg BW SC): 20273
- Plasma Rat Growth Hormone (3.00 mg/kg BW SC, −120 min): 20.05 ng/mL
- GH secretion compared with natural hGHRH(1-44)NH2 (pulse amplitude and AUC) (rat): twice larger
- In vivo potency compared with the natural 44 amino acid GHRH (rat and dog): at least two times more potent in vivo
- Somatotroph desensitization (rat, highest single IV dose): induced transient somatotroph desensitization
- GH secretion into peripheral blood, dose dependence (rat, intravenous and subcutaneous): dose-dependent response
- Time of peak GH secretion (rat, intravenous injection): 4 to 10 min
- Time of peak GH secretion (rat, single subcutaneous injection): 10 to 15 min

Reference: patent publication US20090088380A1, “GHRH ANALOGS AND THERAPEUTIC USES THEREOF” (priority 2007, published 2009)
